Tests used:
rabbit = settings: Prenatal developmental toxicity study, new zealand white, Oral, Gavage/Intubation, dose end: 19 GD, group: maternal
dog [1] = settings: Subchronic oral toxicity in nonrodent, beagle, Feed, dose end: 103 day
dog [2] = settings: Chronic toxicity, beagle, Oral, Feed, dose end: 52 week
mouse [3] = settings: Carcinogenicity, cd1, Oral, Feed, dose end: 18 month, group: systemic
rat [4] = settings: Subchronic oral toxicity in rodents, Charles River Crl:CD BR, Feed, dose end: 6 week
dog [5] = settings: Subchronic oral toxicity in nonrodent, beagle, Feed, dose end: 26 week
rat [6] = settings: Combined chronic toxicity/carcinogenicity, sprague dawley, Oral, Feed, dose end: 24 month
rat [7] = settings: Prenatal developmental toxicity study, other, Oral, Gavage/Intubation, dose end: 16 GD, group: maternal
rat [8] = settings: Subchronic oral toxicity in rodents, other, Feed, dose end: 90 day
mouse [9] = settings: Subchronic oral toxicity in rodents, cd1, Feed, dose end: 7 week
[10] = reproductive / reproductive performance / resorptions / resorptions + systemic / in life observation / body weight / body weight gain + …
[11] = group: cholinesterase, cholinesterase / cholinesterase / cholinesterase / brain (regional) cholinesterase (che) + cholinesterase / cholinesterase / cholinesterase…
[12] = group: systemic, systemic / clinical chemistry / albumin / albumin + systemic / clinical chemistry / calcium / calcium + systemic / clinical chemistry / …
[13] = group: cholinesterase, cholinesterase / cholinesterase / cholinesterase / erythrocyte cholinesterase (che) + cholinesterase / cholinesterase / cholinesterase / …
[14] = group: systemic, systemic / clinical chemistry / albumin / albumin + systemic / clinical chemistry / alkaline phosphatase (alp/alk) / alkaline phosphatase (…
[15] = systemic / in life observation / body weight / body weight gain + systemic / in life observation / clinical signs / fur (altered appearance…
[16] = group: cholinesterase, cholinesterase / cholinesterase / cholinesterase / brain cholinesterase (che)
[17] = group: cholinesterase, cholinesterase / cholinesterase / cholinesterase / brain cholinesterase (che) + cholinesterase / cholinesterase / cholinesterase / plasma …
[18] = group: systemic, systemic / in life observation / body weight / body weight gain
[19] = group: systemic, systemic / in life observation / body weight / body weight gain + systemic / in life observation / body weight / body weight
[20] = group: cholinesterase, cholinesterase / cholinesterase / cholinesterase / plasma cholinesterase (che)
[21] = group: systemic, systemic / in life observation / clinical signs / defecation (diarrhea)
[22] = group: systemic, systemic / in life observation / clinical signs / defecation (diarrhea) + systemic / in life observation / clinical signs / distended …
[23] = group: cholinesterase, cholinesterase / cholinesterase / cholinesterase / erythrocyte cholinesterase (che)
[24] = group: systemic, systemic / clinical chemistry / sodium / sodium
[25] = systemic / in life observation / body weight / body weight gain + systemic / in life observation / mortality / mortality + reproductive / …
[26] = systemic / in life observation / body weight / body weight gain + systemic / in life observation / mortality / mortality + systemic / in …
[27] = group: cholinesterase, cholinesterase / cholinesterase / cholinesterase / brain cholinesterase (che) + cholinesterase / cholinesterase / cholinesterase / …
[28] = group: systemic, systemic / in life observation / clinical signs / body surface staining + systemic / in life observation / clinical signs / hunched posture…
[29] = group: systemic, systemic / in life observation / body weight / body weight gain + systemic / in life observation / mortality / mortality + systemic / in …

## CCOP(=S)(OCC)OC(Cl)C(Cl)(Cl)Cl (stereo not drawn) [Chlorethoxyfos]
rabbit; reproductive / reproductive performance / resorptions / resorptions
  LOAEL: 3.1 mg/kg/day
rabbit; [10]
  LEL: 3.1 mg/kg/day
  NEL: 1.38 mg/kg/day
  NOAEL: 1.38 mg/kg/day
Dog [1]; [11]
  LEL: 0.125 mg/kg/day
  LOAEL: 0.125 mg/kg/day
  NEL: 0.0125 mg/kg/day
  NOAEL: 0.0125 mg/kg/day
Dog [1]; [12]
  LEL: 1.25 mg/kg/day
  LOAEL: > 1.25 mg/kg/day
  NEL: 0.125 mg/kg/day
  NOAEL: ≥ 1.25 mg/kg/day
Dog [2]; [13]
  LEL: 0.591 mg/kg/day
  LOAEL: 0.591 mg/kg/day
  NEL: 0.065 mg/kg/day
  NOAEL: 0.065 mg/kg/day
Dog [2]; group: systemic, systemic / clinical chemistry / albumin / albumin
  LOAEL: 1.86 mg/kg/day
Dog [2]; [14]
  NEL: 0.065 mg/kg/day
  NOAEL: 0.591 mg/kg/day
Dog [2]; group: systemic, systemic / clinical chemistry / calcium / calcium
  LEL: 0.591 mg/kg/day
Mouse [3]; [15]
  LOAEL: 14.9 mg/kg/day
  NEL: 0.337 mg/kg/day
  NOAEL: 3.25 mg/kg/day
Mouse [3]; systemic / pathology gross / skin / discolored
  LEL: 3.25 mg/kg/day
Rat [4]; [16]
  LEL: 0.66 mg/kg/day
  LOAEL: 0.66 mg/kg/day
Rat [4]; [17]
  NEL: 0.132 mg/kg/day
  NOAEL: 0.132 mg/kg/day
Rat [4]; [18]
  LOAEL: 0.958 mg/kg/day
Rat [4]; [19]
  LEL: 0.958 mg/kg/day
  NEL: 0.477 mg/kg/day
  NOAEL: 0.477 mg/kg/day
Dog [5]; [20]
  LEL: 0.061 mg/kg/day
  LOAEL: 0.578 mg/kg/day
  NEL: < 0.061 mg/kg/day
Dog [5]; group: cholinesterase, cholinesterase / cholinesterase / cholinesterase / plasma cholinesterase (che) + cholinesterase / cholinesterase / cholinesterase / brain (…
  NOAEL: 0.061 mg/kg/day
Dog [5]; [21]
  LEL: 0.578 mg/kg/day
  LOAEL: 0.578 mg/kg/day
Dog [5]; [22]
  NEL: 0.061 mg/kg/day
  NOAEL: 0.061 mg/kg/day
Rat [6]; [23]
  LEL: 0.311 mg/kg/day
  LOAEL: 0.311 mg/kg/day
  NEL: 0.154 mg/kg/day
  NOAEL: 0.154 mg/kg/day
Rat [6]; [24]
  LEL: 0.416 mg/kg/day
  LOAEL: > 0.416 mg/kg/day
  NEL: 0.208 mg/kg/day
  NOAEL: ≥ 0.416 mg/kg/day
Rat [7]; [25]
  LEL: 0.5 mg/kg/day
  LOAEL: 0.5 mg/kg/day
Rat [7]; [26]
  NEL: 0.25 mg/kg/day
  NOAEL: 0.25 mg/kg/day
Rat [8]; [27]
  LEL: 0.635 mg/kg/day
  LOAEL: > 1.64 mg/kg/day
  NEL: 0.08 mg/kg/day
  NOAEL: ≥ 1.64 mg/kg/day
Rat [8]; [28]
  LEL: 1.23 mg/kg/day
  LOAEL: 1.23 mg/kg/day
  NEL: 0.635 mg/kg/day
  NOAEL: 0.635 mg/kg/day
Mouse [9]; [20]
  LEL: 0.15 mg/kg/day
  LOAEL: 0.15 mg/kg/day
  NEL: 0.015 mg/kg/day
  NOAEL: 0.015 mg/kg/day
Mouse [9]; [18]
  LOAEL: 11.2 mg/kg/day
Mouse [9]; group: systemic, systemic / in life observation / body weight / body weight gain + systemic / in life observation / body weight / body weight + systemic / in…
  LEL: 11.2 mg/kg/day
Mouse [9]; [29]
  NEL: 0.15 mg/kg/day
  NOAEL: 0.15 mg/kg/day

Reference: EPA's ToxRefDB 2
